Columns and labels:
Type in all cases: physicochemical
[1] = UV-Vis absorption spectra and thermal relaxation of the cis isomers in DMSO; conditions: 60 μM in 100% DMSO, 37 °C
Experimental: (§1) The UV–vis absorbance spectra of all molecules were measured in the dark and after the application of light of different wavelengths ranging from 365 to 770 nm (Figure A and Figures S1–S3). […] Consequently, violet/UV light below 405 nm efficiently promoted photoisomerization, which produced a dramatic decrease in the π-π* band and a significant increase in the n-π* band at around 445 nm (Table ). […] The proportion of molecules at the PSS in trans isomer upon constant illumination with light at 525 nm and cis at 365 nm was in general above 50%, reaching a remarkable >99% for compound 11d (Table and Figures S4 and S5). […] The greater stability of the trans isomer was consistent with previous quantum mechanical and molecular mechanics predictions. Measuring the photoisomerization properties of compound PhotoVDRM allowed us to determine the photoisomerization quantum yields of the compound by solving a differential equation for photoisomerization. We used MATLAB to perform regression and arrive at the following photoisomerization quantum yields: ϕ365 nm (trans) = 0.0427, ϕ365 nm (cis) = 0.0501, ϕ470 nm (trans) = 0.1857, and ϕ470 nm (cis) = 0.2281 (Figure S9). Compound PhotoVDRM was also evaluated in aqueous buffer used for pharmacological experiments (0.5% DMSO) showing a thermal relaxation of 3 h, almost 7 times faster than in pure DMSO (Figure B). […] A deeper photocharacterization of PhotoVDRM allowed us to measure the kinetics of photoconversion upon constant illumination with two wavelengths and three light intensities (Figure D and Figure S10). […] Indeed, with LED devices producing light at intensities as low as 0.05 mW/mm^2 we were able to transform trans to cis in around 15.5 s. This time was reduced to 6 and 2 s when the light intensity was increased to 0.15 and 0.75 mW/mm^2. […] Therefore, we proceeded to test the ability of the chemical library to activate the VDR under different light conditions.
2. Photochemical characterization. […]
(§2) (200 µL per well). The absorption spectra were recorded from 300 to 600 nm with 2 nm fixed intervals using a Tecan Spark 20M Multimode microplate reader. Initial measurements were performed in the dark, followed by spectra acquired immediately after each 3 min period of light irradiation at different wavelengths using 96-well LED array plates (LEDA Teleopto). Theoretical absorbance spectra corresponding to the pure cis isomer (100%) of each compound were calculated in order to obtain the theoretical percentage of cis isomer at each wavelength, according to the method described by Ernst Fischer (1967). Thermal relaxation kinetics of the experimental cis isomers were assessed in quartz cuvettes (10 mm optical path) containing freshly prepared 50 […]
Dark state absorbance at 365 nm was recorded at 37
ºC using a ThermoFisher Evolution 350 UV-Vis spectrophotometer. Samples were then irradiated for 3 minutes at 365 nm with a CoolLED pE-4000 light sourceto induce trans → cis photoisomerization.. Absorbance at 365 nm was subsequently monitored over 48 h: every 15 min during the first 24 h, and every 60 min during the following 24 h. Relaxation half-lives were determined by fitting the absorbance-time data to a […] exponential model using GraphPad Prism v10.4.1. […]

[2] = Photostationary state (PSS) determination by HPLC-MS in aqueous assay buffer; conditions: 21 °C, HPLC-MS, 60 μM, aqueous buffer 0.6% DMSO
Experimental: as §1
Photostationary state (PSS) determination. In a transparent vial, solutions of the compounds were prepared at a concentration of 60 µM from a 10 mM stock in DMSO, using the assay buffer of pharmacological experiments for dilution. Prior to illumination, a volume of 500 µL was transferred to an amber vial for the "dark" sample. The same procedure was repeated after exposing the transparent vial containing the 60 µM solutions to the following light conditions:
365nm for 3 minutes and 525nm for 3 minutes. […]
difference on isomeric proportions. For each sample, 20 µL was analyzed by HPLC-MS, and the isomer ratios were determined at the isosbestic point.
Isosbestic point determination. The solvent percentage for the elution of each isomer were calculated based on their retention times from HPLC analysis. Subsequently, 50 µM solutions were prepared from the 10 mM DMSO stock solution of each compound using the previously determined HPLC solvent mixture. The UV spectrum for each solution was recorded after illumination at 365 nm (30 seconds), at 400 nm (30 seconds), and at 525 nm (30 seconds). The spectra were overlaid to identify the isosbestic point of maximum intensity.
HPLC conditions. Analytical HPLC was performed on a Thermo Ultimate 3000SD (Thermo Scientific Dionex) coupled to a PDA detector and Mass Spectrometer LTQ XL ESI-ion trap (Thermo Scientific). Cromatographic separations were performed using a ZORBAX Eclipse Plus C18 (4.6 x 150mm; 3.5µm) column. The mobile phase consisted of an isocratic mixture of solvent A (water with 0.05% of formic acid) and solvent B (acetonitrile with 0.05% formic acid) at a 3:7 ratio for compounds 10a-d and a 2:3 ratio for compounds 11a-d and 12a-d. […]

[3] = Proportions of cis and trans at the photostationary state in DMSO from absorbance spectra (Ernst Fischer method)
Experimental: 2. Photochemical characterization.
as §2, with “A 50 µM solution of each compound in DMSO was dispensed into a transparent 96-well plate (200” for “(200”, “(1967).” for “(1967). Thermal relaxation kinetics of the experimental cis isomers were assessed in quartz cuvettes (10 mm optical path) containing freshly prepared 50”
Table S6. Proportions of cis and trans at the photostationary state in DMSO. […]

In the case of `Cc1cc(/N=N/c2cccc(-c3ccc(CO)cc3C)c2)ccc1OCC(O)C(C)(C)C` (stereo not shown) [Compound 12c], the “t 1/2 (thermal relaxation of cis)” value [1] is reported as 23.2 h, the “λn−π* (cis)” value ([1]; after illumination) is reported as 444 nm and the “λπ–π* (trans)” value ([1]; dark) is reported as 364 nm. The “PSS365 (% cis)” value ([2]; 3 min illumination 365 nm) was 87%, the “PSS525 (%trans)” value ([2]; 3 min illumination 525 nm) was 86% and the “%cis at the photostationary state” value ([3]; 365 nm) was 96,95%. The “%trans at the photostationary state” value ([3]; 365 nm) was 3,05%, the “%cis at the photostationary state” value ([3]; 380 nm) was 95,69% and the “%trans at the photostationary state” value ([3]; 380 nm) was 4,31%. The “%cis at the photostationary state” value ([3]; 405 nm) was 59,74%, the “%trans at the photostationary state” value ([3]; 405 nm) was 40,26% and the “%cis at the photostationary state” value ([3]; 420 nm) was 56,13%. For the same molecule, the “%trans at the photostationary state” value ([3]; 420 nm) was 43,87%, the “%cis at the photostationary state” value ([3]; 470 nm) was 28,95% and the “%trans at the photostationary state” value ([3]; 470 nm) was 71,05%. The “%cis at the photostationary state” value ([3]; 500 nm) was 30,48%, the “%trans at the photostationary state” value ([3]; 500 nm) was 69,52% and the “%cis at the photostationary state” value ([3]; 530 nm) was 26,87%. The “%trans at the photostationary state” value ([3]; 530 nm) was 73,13%.
